Data reported in patent US10023602B2, “Hamamelitannin analogues and uses thereof” (Universiteit Gent, priority 2014, dated 2018).

Key:
[1] = test system: methicillin resistant S. aureus Mu50 strain (S. aureus ATCC700699) biofilm; assay: Biofilm susceptibility to vancomycin, combination treatment regimen (mature biofilm treated with compound plus vancomycin); type: cell-based; details: for Combin. (100 μM): percentage Colony Forming Units (CFU's) per biofilm: compound 100 μM together with VAN 20 μg/ml on mature biofilm, compared to the untreated (negative) control; for EC50: concentration needed to get 50% killing compared to antibiotic alone (VAN 20 μg/ml) and complete killing, read-out: Combin. (EC50)
Protocol: (§1) The compounds were evaluated for their effect on biofilm susceptibility both under pre-treatment and combination treatment regimens. In the pre-treatment regimen, a methicillin resistant S. aureus Mu50 strain (S. aureus ATCC700699) was allowed to form biofilms in the presence of the compounds after which the biofilm was treated with vancomycin (20 μg/ml). In the combination treatment regimen, S. aureus Mu50 was allowed to form a mature biofilm after which it was treated with a combination of a compound and vancomycin. In brief, 100 μl of a standardized inoculum (10^8 CFU/ml) was placed in the wells of a round-bottom 96-well microtiter plate. The cells were allowed to adhere to the plate in the absence (combined treatment) or presence (pre-treatment) of the compounds (0.1-250 μM) for 4 h at 37° C. After this adhesion step, non-adhered cells were removed, the wells were rinsed and fresh medium with or without the compounds was added. The plates were incubated for an additional 20 h at 37° C. After this, the medium was removed, biofilms were rinsed with physiological saline and vancomycin (20 μg/ml) was added alone (pre-treatment) or with the compounds (combined treatment, 0.1-250 μM). Plates were placed at 37° C. for 24 h after which medium was removed, wells were rinsed and the surviving cells in each condition were collected. The number of surviving cells under each condition was compared to vancomycin treatment alone and was assessed by conventional plating. The REF compound (hamamelitannin) was also observed for its effect on biofilm susceptibility towards other antibiotics (incl. vancomycin, cefoxitin, tobramycin, cefazolin, cefalonium, daptomycin, linezolide and cephalexin). Biofilms were formed as described above and were treated with the antibiotics alone or in combination with the REF compound (250 μM). The number of surviving cells under each condition was compared to the untreated control biofilm and was assessed by conventional plating.

[2] = test system: methicillin resistant S. aureus Mu50 strain (S. aureus ATCC700699) biofilm; assay: Biofilm susceptibility to vancomycin, pre-treatment regimen (biofilm formed in presence of compound, then vancomycin); type: cell-based; details: for Pretreat (100 μM): percentage Colony Forming Units (CFU's) per biofilm: compound 100 μM during biofilm formation, then VAN 20 μg/ml, compared to the untreated (negative) control; for EC50: concentration needed to get 50% killing compared to antibiotic alone (VAN 20 μg/ml) and complete killing, read-out: Pretreat. (EC50)
Protocol: as §1

SMILES | Combin. (100 μM): percentage Colony Forming Units (CFU's) per biofilm [1] | EC50 [1] | Pretreat (100 μM): percentage Colony Forming Units (CFU's) per biofilm [2] | EC50 [2]
O=C(NC[C@H]1OC(O)[C@@](O)(CNC(=O)c2cc(O)c(O)c(O)c2)[C@@H]1O)c1cc(O)c(O)c(O)c1 (stereo partly drawn) [compound 15, N,N′-(((2R,3R,4R)-3,4,5-trihydroxytetrahydrofuran-2,4-diyl)bis(methylene))bis(3,4,5-trihydroxybenzamide)] | 57.74 percentage | 191 µM | 22.35 percentage | 63.8 µM
COc1cc(C(=O)NC[C@H]2OC(O)[C@@](O)(CNC(=O)c3cc(OC)c(OC)c(OC)c3)[C@@H]2O)cc(OC)c1OC (stereo partly drawn) [compound 16, N,N′-(((2R,3R,4R)-3,4,5-trihydroxytetrahydrofuran-2,4-diyl)bis(methylene))bis(3,4,5-trimethoxybenzamide)] | 71.85 percentage | 238 µM | 62.41 percentage | 207 µM
O=C(NC[C@H]1OC(O)[C@@](O)(CNC(=O)c2ccc(O)c(O)c2)[C@@H]1O)c1ccc(O)c(O)c1 (stereo partly drawn) [compound 17, N,N′-(((2R,3R,4R)-3,4,5-trihydroxytetrahydrofuran-2,4-diyl)bis(methylene))bis(3,4-dihydroxybenzamide)] | 61.16 percentage | 169 µM | 55.76 percentage | 182 µM
O=C(NC[C@H]1OC(O)[C@@](O)(CNC(=O)c2cc(O)cc(O)c2)[C@@H]1O)c1cc(O)cc(O)c1 (stereo partly drawn) [compound 18, N,N′-(((2R,3R,4R)-3,4,5-trihydroxytetrahydrofuran-2,4-diyl)bis(methylene))bis(3,5-dihydroxybenzamide)] | 79.55 percentage | 231 µM | 37.58 percentage | 116 µM
O=C(NC[C@H]1OC(O)[C@@](O)(CNC(=O)c2cccc(O)c2)[C@@H]1O)c1cccc(O)c1 (stereo partly drawn) [compound 19, N,N′-(((2R,3R,4R)-3,4,5-trihydroxytetrahydrofuran-2,4-diyl)bis(methylene))bis(3-hydroxybenzamide)] | 27.23 percentage | 52.3 µM | 19.78 percentage | 38.5 µM
O=C(NC[C@H]1OC(O)[C@@](O)(CNC(=O)c2ccc(O)cc2)[C@@H]1O)c1ccc(O)cc1 (stereo partly drawn) [compound 20, N,N′-(((2R,3R,4R)-3,4,5-trihydroxytetrahydrofuran-2,4-diyl)bis(methylene))bis(4-hydroxybenzamide)] | 27.23 percentage | 52.3 µM | 19.78 percentage | 85.6 µM
O=C(NC[C@H]1OC(O)[C@@](O)(CNC(=O)c2ccccc2)[C@@H]1O)c1ccccc1 (stereo partly drawn) [compound 21, N,N′-(((2R,3R,4R)-3,4,5-trihydroxytetrahydrofuran-2,4-diyl)bis(methylene))dibenzamide] | 56.02 percentage | 154 µM | 18.04 percentage | 73.6 µM
Cc1ccc(C(=O)NC[C@H]2OC[C@@](O)(CNC(=O)c3ccccc3)[C@@H]2O)cc1 [compound 151, N-(((2R,3R,4S)-4-(benzamidomethyl)-3,4-dihydroxytetrahydrofuran-2-yl)methyl)-4-methylbenzamide] | 24.59 percentage | – | 22.36 percentage | –
O=C(NC[C@H]1OC[C@@](O)(CNC(=O)c2ccccc2)[C@@H]1O)c1ccc(F)cc1 [compound 152, N-(((2R,3R,4S)-4-(benzamidomethyl)-3,4-dihydroxytetrahydrofuran-2-yl)methyl)-4-fluorobenzamide] | 14.05 percentage | – | 15.07 percentage | –
O=C(NC[C@H]1OC[C@@](O)(CNC(=O)c2ccccc2)[C@@H]1O)c1ccc(Cl)cc1 [compound 153, N-(((2R,3R,4S)-4-(benzamidomethyl)-3,4-dihydroxytetrahydrofuran-2-yl)methyl)-4-chlorobenzamide] | 8.577 percentage | 21.4 µM | 9.185 percentage | 18 µM
COc1ccc(C(=O)NC[C@H]2OC[C@@](O)(CNC(=O)c3ccccc3)[C@@H]2O)cc1 [compound 154, N-(((2R,3R,4S)-4-(benzamidomethyl)-3,4-dihydroxytetrahydrofuran-2-yl)methyl)-4-methoxybenzamide] | 22.56 percentage | – | 19.34 percentage | –
N#Cc1ccc(C(=O)NC[C@H]2OC[C@@](O)(CNC(=O)c3ccccc3)[C@@H]2O)cc1 [compound 155, N-(((2R,3R,4S)-4-(benzamidomethyl)-3,4-dihydroxytetrahydrofuran-2-yl)methyl)-4-cyanobenzamide] | 16.06 percentage | – | 15.57 percentage | –
CN(C)c1ccc(C(=O)NC[C@H]2OC[C@@](O)(CNC(=O)c3ccccc3)[C@@H]2O)cc1 [compound 156, N-(((2R,3R,4S)-4-(benzamidomethyl)-3,4-dihydroxytetrahydrofuran-2-yl)methyl)-4-(dimethylamino)benzamide] | 11.27 percentage | – | 16.58 percentage | –
O=C(NC[C@H]1OC[C@@](O)(CNC(=O)c2ccccc2)[C@@H]1O)c1ccc(C(F)(F)F)cc1 [compound 157, N-(((2R,3R,4S)-4-(benzamidomethyl)-3,4-dihydroxytetrahydrofuran-2-yl)methyl)-4-(trifluoromethyl)benzamide] | 11.25 percentage | – | 15.95 percentage | –
O=C(NC[C@H]1OC[C@@](O)(CNC(=O)c2ccccc2)[C@@H]1O)c1ccncc1 [compound 158, N-(((2R,3R,4S)-4-(benzamidomethyl)-3,4-dihydroxytetrahydrofuran-2-yl)methyl)isonicotinamide] | 13.89 percentage | 19.2 µM | 7.268 percentage | 9.94 µM
O=C(NC[C@H]1OC[C@@](O)(CNC(=O)c2ccccc2)[C@@H]1O)c1ccc(-c2ccccc2)cc1 [compound 159, N-(((2R,3R,4S)-4-(benzamidomethyl)-3,4-dihydroxytetrahydrofuran-2-yl)methyl)-[1,1′-biphenyl]-4-carboxamide] | 6.966 percentage | 11.3 µM | 10.97 percentage | 6.38 µM
Cc1cccc(C(=O)NC[C@H]2OC[C@@](O)(CNC(=O)c3ccccc3)[C@@H]2O)c1 [compound 160, N-(((2R,3R,4S)-4-(benzamidomethyl)-3,4-dihydroxytetrahydrofuran-2-yl)methyl)-3-methylbenzamide] | 23.39 percentage | – | 23.09 percentage | –
